According to article PMC8769072, “Proteome‐scale mapping of binding sites in the unstructured regions of the human proteome” (Molecular Systems Biology, 2022):
One block for each substance: values may come before it. Where no end group is shown, it is not given here. The star is where a group is joined. FITC = O=C1OC2(c3ccc(O)cc3Oc3cc(O)ccc32)c2ccc(NC(=S)*)cc21

Legend:
KPNA4 ARM [1] = biological target: T1, KPNA4 ARM (Homo sapiens, UniProt O00629); experiment: FP competition, KPNA4 ARM major pocket (FITC-Myc probe); format: binding; settings: for IC50: FP competition with FITC-Myc320-328 probe for the major pocket, 50 mM KPO4 pH 7.5, n = 3 technical replicates; for Kd: Fig 5D, FP competition with FITC-Myc320-328, major groove, n = 3
T1 construct: O00629; KPNA4; Arm; 68; 487; pETM33/pETM41; Genescript; made in house; host or cells: bacteria (E. coli BL21(DE3) gold is named only for the phage-selection preparations)
Text: (§1) Like other importins, KPNA4 has two distinct NLS‐binding pockets on the surface of an armadillo (ARM) repeat fold (major pocket, ARM 2–4; minor pocket, ARM 6–8; Fig 5B) (Smith et al, [2018]). Bipartite NLSs are usually 17–19 amino acids long and engage both pockets. Monopartite NLSs are short basic stretches, divided into five classes (Kosugi et al, [2009]): class I KR[KR]R or K[KR]RK, class II [PR]xxKR[^DE][KR] (where ^ indicates “not”), class III KRx[WFY]xxAF, class IV [RP]xxKR[KR][^DE], and class V LGKR[KR][WFY]. The class I and class II motifs preferentially interact with the major pocket (Kosugi et al, [2009]). In contrast, class III and class IV NLSs preferentially bind to the minor pocket. Using KPNA4 as a bait against the HD2 P8 library we identified 33 peptides found in 32 proteins. Of the 26 proteins for which information was available, 22 proteins were annotated as having nuclear or nucleolar localization in the UniProt database. To gain additional information we combined the data generated for KPNA4 by screening against the complete P8 HD2 library, with the results generated using two relevant sublibraries (the cytoplasmic and nuclear, and nuclear sublibraries) resulting in a set of 92 peptides containing NLS‐like sequences found in 76 proteins. Using these peptides we could generate consensus motifs that matched four of the previously reported NLS classes (Fig 5A; class I‐IV). […] Three peptides bound only to the major pocket. Eight peptides with class III motif and one KRxH‐containing peptide only bound to the minor pocket. Five peptides outcompeted both probe peptides, which may be explained by the amino acid sequence matching both class II and class III motifs (e.g., 1135‐ PSPKRKL ‐1139 in ZNF532; Fig 5), and possibly by cross specificity of the two binding pockets.

KPNA4 ARM [2] = biological target: T1, KPNA4 ARM; experiment: FP competition, KPNA4 ARM minor pocket (FITC-NCOR2 probe); format: binding
Text: as §1

TLN1 PTB = biological target: T2, TLN1 PTB (Homo sapiens, UniProt Q9Y490); experiment: FP competition, TLN1 PTB; format: binding
T2 construct: Q9Y490; TLN1; PTB; 309; pHH0103; Sidhu Lab (PMID: 33438817); made in house; host or cells: bacteria (E. coli BL21(DE3) gold is named only for the phage-selection preparations)

KEAP1 Kelch = biological target: T3, KEAP1 Kelch (Homo sapiens, UniProt Q14145); experiment: FP competition, KEAP1 Kelch; format: binding
T3 construct: Q14145; KEAP1; Kelch; 321; 609; pETM33; Genescript; made in house; host or cells: bacteria (E. coli BL21(DE3) gold is named only for the phage-selection preparations)

[3] = tested on: immobilized GST-tagged bait protein domains; experiment: ProP-PD phage selections (HD2 P8, sublibraries, HD2 P3, HD1 P8) with NGS and confidence level; format: binding, human; settings: bait CRK_SH3_1_P46108_124_198; library HD2; benchmarking set of validated motif instances; TRUE = motif instance recovered in the ProP-PD selection
MDM2 SWIB = biological target: T4, MDM2 SWIB (Homo sapiens, UniProt Q00987); experiment: FP competition, MDM2 SWIB; format: binding
T4 construct: Q00987; MDM2; SWIB; 17; 125; pETM33; Genescript; His-GST (cleaved yes); made in house; host or cells: bacteria (E. coli BL21(DE3) gold is named only for the phage-selection preparations)

KPNA4 ARM [4] = biological target: T1, KPNA4 ARM; experiment: FP saturation (direct binding of FITC probes), KPNA4 ARM; settings: direct binding of FITC-labeled probe, saturation with KPNA4 ARM

Substance: DLIFTDSKLYIPLE-NH2 [TPTE]
IC50 (TLN1 PTB): 15 µM

Substance: DLKRRLDSITSSQSSA-NH2 [KDR]
IC50 (KPNA4 ARM [1]): 22 µM
Kd (KPNA4 ARM [1]): 14 µM
IC50 (KPNA4 ARM [2]): 24 µM

Substance: EDSIEPPHKRLCLSSE-NH2 [DMTF1]
IC50 (KPNA4 ARM [1]): 0.13 µM
Kd (KPNA4 ARM [1]): 0.075 µM

Substance: ERENPSKRSRIERDID-NH2 [CTDSPL2]
IC50 (KPNA4 ARM [1]): 1.9 µM

Substance: FPTDERSWVYSPLHYS-NH2 [PIP5K1C]
IC50 (TLN1 PTB): 0.42 µM
Ki (TLN1 PTB; Fig 3C, FP competition with FITC-PIP5K1C probe, triplicates): 0.066 µM

Substance: GFDAVTGEFTGMPEQW-NH2 [PAK1]
IC50 (KEAP1 Kelch): 44 µM
motif_found [3]: FALSE

Substance: GKKRTFDETVSTYVPL-NH2 [TPX2]
IC50 (KPNA4 ARM [2]): 0.41 µM
Kd (KPNA4 ARM [2]; read-out: KD (Fig 5D)): 0.047 µM

Substance: IDPSTGERFPVTDAVN-NH2 [PLEC 4459-4474]
IC50 (KEAP1 Kelch): 6.1 µM

Substance: IPEKKQRLEEATTICL-NH2 [AFF2]
IC50 (KPNA4 ARM [1]): 2.3 µM
IC50 (KPNA4 ARM [2]): 3800 µM

Substance: PKRTYDMMEGRVGRAI-NH2 [NCOR2]
IC50 (KPNA4 ARM [2]): 0.12 µM

Substance: THFAELWGHLDHTMFF [RNF115]
IC50 (MDM2 SWIB): 9 µM
Ki (MDM2 SWIB; Fig 3C, FP competition with FITC-p53 probe, triplicates): 0.174 µM

Substance: TPEDDRSFQTVWATVF [KIAA1671]
IC50 (MDM2 SWIB): 73 µM

Substance: VEPETKRLKLAASEDH-NH2 [ZRANB3]
IC50 (KPNA4 ARM [1]): 0.24 µM

Substance: {FITC}-PAAKRVKLD [Myc, FITC-labeled Myc 320-328 probe for the KPNA4 major pocket]
Kd (KPNA4 ARM [4]): 0.03 µM

Now from value to substance:

IC50 (KPNA4 ARM [1]): 0.076 µM
IC50 (KPNA4 ARM [2]): 170 µM
Substance: DHQFPAKRPRLSEPQG-NH2 [HJURP]

IC50 (KPNA4 ARM [2]): 36 µM
Substance: ELKRKLEQEQKLVEVL-NH2 [MKL2]

IC50 (MDM2 SWIB): 130 µM
Substance: GFEAQWAALENKSKQR [NUMB]

IC50 (KPNA4 ARM [2]): 0.43 µM
Substance: GVKRTYSEVYPGQQYL-NH2 [ZMIZ2]

IC50 (KPNA4 ARM [2]): 3.6 µM
Substance: PFKRPHSTISDSSTSS-NH2 [PLEKHG4B]

IC50 (KPNA4 ARM [2]): 1.3 µM
Substance: SLAPVKRTYEQMEFPL-NH2 [ADNP]

IC50 (KPNA4 ARM [2]): 2.4 µM
Substance: STMKRKHDEIQRSLPV-NH2 [ZBED9]

IC50 (TLN1 PTB): 62 µM
Substance: VGPLTPLWTYPATAAG-NH2 [NYAP1]

IC50 (KEAP1 Kelch): 80 µM
Substance: YDPVTGEWKSLAKLPE-NH2 [KLHL24]
